Reference: PubChem BioAssay AID1845196 (Molecular Pharmacology Branch, DTP, NCI, 2023)

Tested on: 292921-168-R tumor spheroid viability
Assay: Anticancer human tumor 292921-168-R patient-derived pancreatic carcinoma cell line growth inhibition
Conditions: spheroids with HUVEC and MSC; for IC50: curve of first compound; for viability, T/C: stronger effect = lower value; active means viability on the fitted dose curve at most 10% of control; inactive means the rest
Procedure, shortened: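 Complex tumor spheroids combined malignant cells with endothelial cells and mesenchymal stem cells. DNA-damaging drugs and DNA repair inhibitors were tested alone and in combination, at half-log dilutions down from clinical Cmax (top 10 microM if Cmax unknown), 0.25% DMSO final.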

[1] = second compound 0.003 µM, first compound 0.0316 µM
[2] = second compound 0.003 µM, first compound 0.1 µM
[3] = second compound 0.003 µM, first compound 0.316 µM
[4] = second compound 0.003 µM, first compound 1 µM
[5] = second compound 0.003 µM, first compound 3.16 µM
[6] = second compound 0.003 µM, first compound 10 µM
[7] = second compound 0.00949 µM, first compound 0.0316 µM
[8] = second compound 0.00949 µM, first compound 0.1 µM
[9] = second compound 0.00949 µM, first compound 0.316 µM
[10] = second compound 0.00949 µM, first compound 1 µM
[11] = second compound 0.00949 µM, first compound 3.16 µM
[12] = second compound 0.00949 µM, first compound 10 µM
[13] = second compound 0.03 µM, first compound 0.0316 µM
[14] = second compound 0.03 µM, first compound 0.1 µM
[15] = second compound 0.03 µM, first compound 0.316 µM
[16] = second compound 0.03 µM, first compound 1 µM
[17] = second compound 0.03 µM, first compound 3.16 µM
[18] = second compound 0.03 µM, first compound 10 µM
[19] = second compound 0.0949 µM, first compound 0.0316 µM
[20] = second compound 0.0949 µM, first compound 0.1 µM
[21] = second compound 0.0949 µM, first compound 0.316 µM
[22] = second compound 0.0949 µM, first compound 1 µM
[23] = second compound 0.0949 µM, first compound 3.16 µM
[24] = second compound 0.0949 µM, first compound 10 µM
[25] = second compound 0.3 µM, first compound 0.0316 µM
[26] = second compound 0.3 µM, first compound 0.1 µM
[27] = second compound 0.3 µM, first compound 0.316 µM
[28] = second compound 0.3 µM, first compound 1 µM
[29] = second compound 0.3 µM, first compound 3.16 µM
[30] = second compound 0.3 µM, first compound 10 µM
[31] = second compound 1 µM, first compound 0.0316 µM
[32] = second compound 1 µM, first compound 0.1 µM
[33] = second compound 1 µM, first compound 0.316 µM
[34] = second compound 1 µM, first compound 1 µM
[35] = second compound 1 µM, first compound 3.16 µM
[36] = second compound 1 µM, first compound 10 µM
[37] = second compound 3.16 µM, first compound 0.0316 µM
[38] = second compound 3.16 µM, first compound 0.1 µM
[39] = second compound 3.16 µM, first compound 0.316 µM
[40] = second compound 3.16 µM, first compound 1 µM
[41] = second compound 3.16 µM, first compound 3.16 µM
[42] = second compound 3.16 µM, first compound 10 µM
[43] = second compound 10 µM, first compound 0.0316 µM
[44] = second compound 10 µM, first compound 0.1 µM
[45] = second compound 10 µM, first compound 0.316 µM
[46] = second compound 10 µM, first compound 1 µM
[47] = second compound 10 µM, first compound 3.16 µM
[48] = second compound 10 µM, first compound 10 µM
[49] = second compound 31.6 µM, first compound 0.0316 µM
[50] = second compound 31.6 µM, first compound 0.1 µM
[51] = second compound 31.6 µM, first compound 0.316 µM
[52] = second compound 31.6 µM, first compound 1 µM
[53] = second compound 31.6 µM, first compound 3.16 µM
[54] = second compound 31.6 µM, first compound 10 µM
[55] = second compound 100 µM, first compound 0.0316 µM
[56] = second compound 100 µM, first compound 0.1 µM
[57] = second compound 100 µM, first compound 0.316 µM
[58] = second compound 100 µM, first compound 1 µM
[59] = second compound 100 µM, first compound 3.16 µM
[60] = second compound 100 µM, first compound 10 µM
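Further: spheroids exposed to compounds for 7 days.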

COc1ccc([C@@H](O)c2cc(-c3ncnc4cc(N5CCOCC5)ccc34)c(F)cc2Cl)nn1 + CC[C@@]1(O)C(=O)OCc2c1cc1n(c2=O)Cc2cc3c(CN(C)C)c(O)ccc3nc2-1
inactive: viability, T/C [1] 102% | viability, T/C [2] 94.4% | viability, T/C [3] 77.8% | viability, T/C [4] 55.3% | viability, T/C [5] 34.8% | viability, T/C [6] 20.8% | viability, T/C [7] 77.5% | viability, T/C [8] 74.5% | viability, T/C [9] 71.9% | viability, T/C [10] 45.6% | viability, T/C [11] 32.9% | viability, T/C [12] 17.9% | viability, T/C [13] 41.8% | viability, T/C [14] 38.7% | viability, T/C [15] 34.5% | viability, T/C [16] 25.8% | viability, T/C [17] 21.5% | viability, T/C [18] 17.1% | viability, T/C [19] 10.8% | viability, T/C [20] 12% | viability, T/C [21] 12.5% | viability, T/C [22] 13.2% | viability, T/C [23] 14.5% | viability, T/C [24] 13.8%
active: viability, T/C [25] 3.98% | viability, T/C [26] 3.78% | viability, T/C [27] 4.06% | viability, T/C [28] 4.72% | viability, T/C [29] 6.62% | viability, T/C [30] 8.28%
974 nM: IC50 (second compound 0.00949 µM)
< 31.6 nM: IC50 (second compound 0.03 µM) | IC50 (second compound 0.0949 µM) | IC50 (second compound 0.3 µM)
1350 nM: IC50 (second compound 0.003 µM)

[2H]c1nc(C)nc([2H])c1-c1cc(NC[C@@H](C)c2cccc3c(C(=O)NC)ccnc23)ncn1 + Cn1nnc2c(C(N)=O)ncn2c1=O
> 10000 nM: IC50 (second compound 1 µM) | IC50 (second compound 3.16 µM) | IC50 (second compound 10 µM) | IC50 (second compound 31.6 µM) | IC50 (second compound 100 µM)
inactive: viability, T/C [31] 92.5% | viability, T/C [32] 99.7% | viability, T/C [33] 93.5% | viability, T/C [34] 76.6% | viability, T/C [35] 91.5% | viability, T/C [36] 71.8% | viability, T/C [37] 91% | viability, T/C [38] 91.5% | viability, T/C [39] 90.6% | viability, T/C [40] 93.7% | viability, T/C [41] 88.7% | viability, T/C [42] 77.4% | viability, T/C [43] 89.2% | viability, T/C [44] 86.4% | viability, T/C [45] 87.3% | viability, T/C [46] 93.7% | viability, T/C [47] 87.4% | viability, T/C [48] 79.6% | viability, T/C [49] 86.4% | viability, T/C [50] 87.1% | viability, T/C [51] 86.9% | viability, T/C [52] 86.1% | viability, T/C [53] 89.4% | viability, T/C [54] 75.4% | viability, T/C [55] 81.4% | viability, T/C [56] 81.5% | viability, T/C [57] 84.1% | viability, T/C [58] 81.2% | viability, T/C [59] 79.1% | viability, T/C [60] 70.6%

CC(C)n1c(=O)n(C)c2cnc3cc(F)c(-c4ccc(OCCCN5CCCCC5)nc4)cc3c21 + CC[C@@]1(O)C(=O)OCc2c1cc1n(c2=O)Cc2cc3c(CN(C)C)c(O)ccc3nc2-1
active: viability, T/C [25] 4.72% | viability, T/C [26] 4.71% | viability, T/C [27] 5.4% | viability, T/C [28] 6.25% | viability, T/C [29] 8.92% | viability, T/C [30] 10.4%
inactive: viability, T/C [1] 45.7% | viability, T/C [2] 42.4% | viability, T/C [3] 44.9% | viability, T/C [4] 42.3% | viability, T/C [5] 41.4% | viability, T/C [6] 20.4% | viability, T/C [7] 25.4% | viability, T/C [8] 23.7% | viability, T/C [9] 22.3% | viability, T/C [10] 25.2% | viability, T/C [11] 24.4% | viability, T/C [12] 18.7% | viability, T/C [13] 20.2% | viability, T/C [14] 22.4% | viability, T/C [15] 20.4% | viability, T/C [16] 20.4% | viability, T/C [17] 23.2% | viability, T/C [18] 16.7% | viability, T/C [19] 13.2% | viability, T/C [20] 14.7% | viability, T/C [21] 13.7% | viability, T/C [22] 14.8% | viability, T/C [23] 16.8% | viability, T/C [24] 14.8%
< 31.6 nM: IC50 (second compound 0.003 µM) | IC50 (second compound 0.00949 µM) | IC50 (second compound 0.03 µM) | IC50 (second compound 0.0949 µM) | IC50 (second compound 0.3 µM)

COc1ccc([C@@H](O)c2cc(-c3ncnc4cc(N5CCOCC5)ccc34)c(F)cc2Cl)nn1 + Cn1nnc2c(C(N)=O)ncn2c1=O
899 nM: IC50 (second compound 100 µM)
1290 nM: IC50 (second compound 10 µM)
1140 nM: IC50 (second compound 31.6 µM)
1470 nM: IC50 (second compound 3.16 µM)
1230 nM: IC50 (second compound 1 µM)
inactive: viability, T/C [31] 96.4% | viability, T/C [32] 91.1% | viability, T/C [33] 70.9% | viability, T/C [34] 55.5% | viability, T/C [35] 32.5% | viability, T/C [36] 17.9% | viability, T/C [37] 101% | viability, T/C [38] 95.5% | viability, T/C [39] 82.2% | viability, T/C [40] 60.1% | viability, T/C [41] 31.6% | viability, T/C [42] 19% | viability, T/C [43] 97.5% | viability, T/C [44] 91.6% | viability, T/C [45] 84.9% | viability, T/C [46] 51% | viability, T/C [47] 35.5% | viability, T/C [48] 18.2% | viability, T/C [49] 95.5% | viability, T/C [50] 92.5% | viability, T/C [51] 81.5% | viability, T/C [52] 51.2% | viability, T/C [53] 30.4% | viability, T/C [54] 18.6% | viability, T/C [55] 93% | viability, T/C [56] 88.5% | viability, T/C [57] 77.7% | viability, T/C [58] 45% | viability, T/C [59] 30.4% | viability, T/C [60] 18.9%
